ChEMBL document CHEMBL1201862, “PubChem BioAssay data set” (2004)
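48-hour exposure; five concentrations; linearly interpolated endpoints. GI50 is the concentration that inhibits growth by half.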 Activity calls are given as the source filed them. Cut-off read from the data, not from the text of the source: active = GI50 up to about 1.1 µM and inactive = higher.

Assays:
Test in all cases: inhibition of tumour cell growth, NCI panel, 48 h
Malme-3M = test system: Malme-3M
CCRF-CEM = test system: CCRF-CEM
OVCAR-5 = test system: OVCAR-5
HOP-62 = test system: HOP-62
SF-539 = test system: SF-539
CAKI-1 = test system: CAKI-1
HOP-92 = test system: HOP-92
SNB-75 = test system: SNB-75
HCT-116 = test system: HCT-116
OVCAR-8 = test system: OVCAR-8
LOX IMVI = test system: LOX IMVI
EKVX = test system: EKVX
UACC-62 = test system: UACC-62
SK-MEL-2 = test system: SK-MEL-2
OVCAR-3 = test system: OVCAR-3
SK-MEL-5 = test system: SK-MEL-5
PC-3 = test system: PC-3
SF-268 = test system: SF-268
NCI-H460 = test system: NCI-H460
HCT-15 = test system: HCT-15

With `N#CCCN(CCCN(C(=O)Nc1ccc(NC(=O)N(CCCN(CCC#N)C(N)=O)c2ccccc2)cc1)c1ccccc1)C(N)=O` the GI50 (Malme-3M) was > 100 µM (inactive), the GI50 (CCRF-CEM) was 87.5 µM (inactive) and the GI50 (OVCAR-5) was > 100 µM (inactive). For the same compound, the GI50 (HOP-62) was > 100 µM (inactive), the GI50 (SF-539) was > 100 µM (inactive) and the GI50 (CAKI-1) was > 100 µM (inactive). The GI50 (HOP-92) was > 100 µM (inactive), the GI50 (SNB-75) was 67.5 µM (inactive) and the GI50 (HCT-116) was > 100 µM (inactive). For the same compound, the GI50 (OVCAR-8) was > 100 µM (inactive), the GI50 (LOX IMVI) was > 100 µM (inactive) and the GI50 (EKVX) was > 100 µM (inactive). The GI50 (UACC-62) was > 100 µM (inactive), the GI50 (SK-MEL-2) was > 100 µM (inactive) and the GI50 (OVCAR-3) was > 100 µM (inactive). The GI50 (SK-MEL-5) was > 100 µM (inactive), the GI50 (PC-3) was > 100 µM (inactive) and the GI50 (SF-268) was > 100 µM (inactive). For the same compound, the GI50 (NCI-H460) was > 100 µM (inactive) and the GI50 (HCT-15) was over 100 µM.
